The record followed here is ChEMBL document CHEMBL1955863, “Intramolecular hydrogen bonding: a potential strategy for more bioavailable inhibitors of neuronal nitric oxide synthase” (Bioorg Med Chem, 2012).

The nature of experiment [1]: Selectivity ratio of Ki for bovine eNOS to Ki for rat nNOS.
Experiment [2] in a line: Selectivity ratio of Ki for mouse iNOS to Ki for rat nNOS.
Experiment [3] addresses T1, Nitric oxide synthase 1 (Rattus norvegicus, UniProt P29476). The experiment can be described thus: Inhibition of rat nNOS expressed in HEK293T cells preincubated for 30 mins prior A23187-induced activation measured after 6 hrs by Griess assay. It is filed as cell-based, HEK-293T. (In general: Griess reagent forms a coloured azo dye with nitrite.)
Experiment [4] deals with T1, Nitric oxide synthase 1. The experiment can be described thus: Inhibition of recombinant rat nNOS expressed in Escherichia coli by hemoglobin capture assay.

T1 sequence (P29476 whole entry): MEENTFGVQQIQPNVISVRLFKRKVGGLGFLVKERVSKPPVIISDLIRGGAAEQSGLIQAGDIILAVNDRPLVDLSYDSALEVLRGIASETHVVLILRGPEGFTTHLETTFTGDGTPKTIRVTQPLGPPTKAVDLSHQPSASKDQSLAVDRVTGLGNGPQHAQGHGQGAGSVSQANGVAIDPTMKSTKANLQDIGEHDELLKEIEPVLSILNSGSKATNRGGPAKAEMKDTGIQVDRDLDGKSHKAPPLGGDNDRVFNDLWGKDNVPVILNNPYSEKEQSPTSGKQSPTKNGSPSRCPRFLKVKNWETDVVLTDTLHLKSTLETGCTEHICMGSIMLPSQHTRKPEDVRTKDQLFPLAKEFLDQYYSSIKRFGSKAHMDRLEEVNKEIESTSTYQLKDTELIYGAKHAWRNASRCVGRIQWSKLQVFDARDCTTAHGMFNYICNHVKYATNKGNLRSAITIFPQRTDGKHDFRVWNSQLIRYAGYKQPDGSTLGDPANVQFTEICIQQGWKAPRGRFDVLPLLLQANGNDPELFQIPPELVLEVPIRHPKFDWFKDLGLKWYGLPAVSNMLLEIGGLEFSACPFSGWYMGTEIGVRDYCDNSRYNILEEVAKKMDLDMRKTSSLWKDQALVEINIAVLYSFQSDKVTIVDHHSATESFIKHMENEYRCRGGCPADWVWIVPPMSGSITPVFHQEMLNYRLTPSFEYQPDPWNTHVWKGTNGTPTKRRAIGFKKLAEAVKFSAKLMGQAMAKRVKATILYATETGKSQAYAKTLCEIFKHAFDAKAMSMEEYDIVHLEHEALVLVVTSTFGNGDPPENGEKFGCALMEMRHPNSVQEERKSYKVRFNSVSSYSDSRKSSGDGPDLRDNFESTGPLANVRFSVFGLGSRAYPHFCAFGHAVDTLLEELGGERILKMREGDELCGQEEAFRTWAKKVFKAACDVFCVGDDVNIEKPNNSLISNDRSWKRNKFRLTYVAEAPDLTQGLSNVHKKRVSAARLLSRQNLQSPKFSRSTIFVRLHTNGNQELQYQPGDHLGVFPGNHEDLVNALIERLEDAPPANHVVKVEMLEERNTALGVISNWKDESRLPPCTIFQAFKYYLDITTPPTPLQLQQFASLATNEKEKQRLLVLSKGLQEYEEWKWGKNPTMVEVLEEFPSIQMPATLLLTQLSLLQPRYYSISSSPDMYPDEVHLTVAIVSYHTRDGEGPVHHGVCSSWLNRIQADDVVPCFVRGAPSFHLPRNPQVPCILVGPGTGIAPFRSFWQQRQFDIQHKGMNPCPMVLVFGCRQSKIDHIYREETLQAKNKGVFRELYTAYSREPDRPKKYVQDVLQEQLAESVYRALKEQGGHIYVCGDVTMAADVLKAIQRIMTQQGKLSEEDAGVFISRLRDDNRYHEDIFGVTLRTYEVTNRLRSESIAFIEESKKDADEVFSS

For orientation: IC50 means the concentration needed to halve the response being measured. For `Cc1cc(N)nc(C[C@H]2CNC[C@H]2OCCNCc2ccco2)c1`, the Ratio Ki in experiment [1] turned out to be 169; in experiment [2], 92. It took 100 µM to reach half-maximal inhibition at Nitric oxide synthase 1 [3] (IC50).
For the compound `COc1ccccc1CNCCO[C@@H]1CNC[C@@H]1Cc1cc(C)cc(N)n1`, the Ratio Ki in experiment [1] came out at 93; in experiment [2], 139. Besides, half-maximal inhibition against Nitric oxide synthase 1 [3] (IC50) was put at 22 µM.
Regarding `Cc1cc(N)nc(C[C@H]2CNC[C@H]2OCCNCc2ccccc2F)c1`, the Ratio Ki in experiment [1] was determined as 98; in experiment [2], 105. Inhibition against Nitric oxide synthase 1 [3] was half-maximal at 11 µM (IC50).
The corresponding values for `Cc1cc(N)nc(C[C@H]2CNC[C@H]2OCCNCc2ccccc2O)c1` are 93, 143 and 43 µM.
As for `Cc1cc(C)nc(N)c1`, the IC50 on Nitric oxide synthase 1 [4] turned out to be 0.05 µM; at Nitric oxide synthase 1 [3], 25 µM.
